± gives the expanded uncertainty stated by the source.
Experiment: xn = mol fraction of the nth substance listed
Conditions: 85 kPa, Liquid; for viscosity: Concentric cylinders viscometry; for mass density: Vibrating tube method

NCCCO [3-amino-1-propanol] + CCC(C)O
viscosity (293.15 K, x2 = 0): 37.33 ± 2.3 mPa·s
viscosity (293.15 K, x2 = 0.081): 30.36 ± 1.8 mPa·s
viscosity (293.15 K, x2 = 0.1607): 25.31 ± 1.5 mPa·s
viscosity (293.15 K, x2 = 0.2395): 20.96 ± 1.3 mPa·s
viscosity (293.15 K, x2 = 0.3499): 15.85 ± 0.96 mPa·s
viscosity (293.15 K, x2 = 0.4394): 12.63 ± 0.76 mPa·s
viscosity (293.15 K, x2 = 0.5602): 9.361 ± 0.57 mPa·s
viscosity (293.15 K, x2 = 0.658): 7.574 ± 0.46 mPa·s
viscosity (293.15 K, x2 = 0.7408): 6.103 ± 0.37 mPa·s
viscosity (293.15 K, x2 = 0.8511): 4.795 ± 0.29 mPa·s
viscosity (293.15 K, x2 = 0.9396): 4.079 ± 0.25 mPa·s
mass density (293.15 K, x2 = 0): 987.8 ± 1.3 kg/m3
mass density (293.15 K, x2 = 0.081): 971.2 ± 1.2 kg/m3
mass density (293.15 K, x2 = 0.1607): 955.5 ± 1.2 kg/m3
mass density (293.15 K, x2 = 0.2395): 940.2 ± 1.1 kg/m3
mass density (293.15 K, x2 = 0.3499): 919.3 ± 1.1 kg/m3
mass density (293.15 K, x2 = 0.4394): 902.8 ± 1.1 kg/m3
mass density (293.15 K, x2 = 0.5602): 881 ± 1.1 kg/m3
mass density (293.15 K, x2 = 0.658): 863.9 ± 1.1 kg/m3
mass density (293.15 K, x2 = 0.7408): 849.7 ± 1 kg/m3
mass density (293.15 K, x2 = 0.8511): 830.9 ± 1 kg/m3
mass density (293.15 K, x2 = 0.9396): 816.2 ± 1 kg/m3
viscosity (298.15 K, x2 = 0): 28.59 ± 1.7 mPa·s
viscosity (298.15 K, x2 = 0.081): 23.43 ± 1.4 mPa·s
viscosity (298.15 K, x2 = 0.1607): 19.73 ± 1.2 mPa·s
viscosity (298.15 K, x2 = 0.2395): 16.46 ± 1 mPa·s
viscosity (298.15 K, x2 = 0.3499): 12.59 ± 0.76 mPa·s
viscosity (298.15 K, x2 = 0.4394): 10.15 ± 0.61 mPa·s
viscosity (298.15 K, x2 = 0.5602): 7.634 ± 0.46 mPa·s
viscosity (298.15 K, x2 = 0.658): 6.253 ± 0.38 mPa·s
viscosity (298.15 K, x2 = 0.7408): 5.076 ± 0.31 mPa·s
viscosity (298.15 K, x2 = 0.8511): 4.016 ± 0.24 mPa·s
viscosity (298.15 K, x2 = 0.9396): 3.403 ± 0.2 mPa·s
mass density (298.15 K, x2 = 0): 984.3 ± 1.2 kg/m3
mass density (298.15 K, x2 = 0.081): 967.8 ± 1.2 kg/m3
mass density (298.15 K, x2 = 0.1607): 951.9 ± 1.2 kg/m3
mass density (298.15 K, x2 = 0.2395): 936.6 ± 1.1 kg/m3
mass density (298.15 K, x2 = 0.3499): 915.6 ± 1.1 kg/m3
mass density (298.15 K, x2 = 0.4394): 899 ± 1.1 kg/m3
mass density (298.15 K, x2 = 0.5602): 877.2 ± 1.1 kg/m3
mass density (298.15 K, x2 = 0.658): 860 ± 1.1 kg/m3
mass density (298.15 K, x2 = 0.7408): 845.7 ± 1 kg/m3
mass density (298.15 K, x2 = 0.8511): 827 ± 1 kg/m3
mass density (298.15 K, x2 = 0.9396): 812.2 ± 1 kg/m3
viscosity (303.15 K, x2 = 0): 22.31 ± 1.4 mPa·s
viscosity (303.15 K, x2 = 0.081): 18.39 ± 1.1 mPa·s
viscosity (303.15 K, x2 = 0.1607): 15.6 ± 0.95 mPa·s
viscosity (303.15 K, x2 = 0.2395): 13.11 ± 0.8 mPa·s
viscosity (303.15 K, x2 = 0.3499): 10.15 ± 0.62 mPa·s
viscosity (303.15 K, x2 = 0.4394): 8.261 ± 0.5 mPa·s
viscosity (303.15 K, x2 = 0.5602): 6.309 ± 0.38 mPa·s
viscosity (303.15 K, x2 = 0.658): 5.213 ± 0.32 mPa·s
viscosity (303.15 K, x2 = 0.7408): 4.261 ± 0.26 mPa·s
viscosity (303.15 K, x2 = 0.8511): 3.377 ± 0.2 mPa·s
viscosity (303.15 K, x2 = 0.9396): 2.853 ± 0.17 mPa·s
mass density (303.15 K, x2 = 0): 980.3 ± 1.2 kg/m3
mass density (303.15 K, x2 = 0.081): 964 ± 1.2 kg/m3
mass density (303.15 K, x2 = 0.1607): 948.1 ± 1.2 kg/m3
mass density (303.15 K, x2 = 0.2395): 932.7 ± 1.1 kg/m3
mass density (303.15 K, x2 = 0.3499): 911.6 ± 1.1 kg/m3
mass density (303.15 K, x2 = 0.4394): 895 ± 1.1 kg/m3
mass density (303.15 K, x2 = 0.5602): 873.2 ± 1.1 kg/m3
mass density (303.15 K, x2 = 0.658): 856 ± 1.1 kg/m3
mass density (303.15 K, x2 = 0.7408): 841.7 ± 1 kg/m3
mass density (303.15 K, x2 = 0.8511): 823 ± 1 kg/m3
mass density (303.15 K, x2 = 0.9396): 808.2 ± 1 kg/m3
viscosity (308.15 K, x2 = 0): 17.67 ± 1.1 mPa·s
viscosity (308.15 K, x2 = 0.081): 14.66 ± 0.89 mPa·s
viscosity (308.15 K, x2 = 0.1607): 12.51 ± 0.76 mPa·s
viscosity (308.15 K, x2 = 0.2395): 10.58 ± 0.64 mPa·s
viscosity (308.15 K, x2 = 0.3499): 8.29 ± 0.5 mPa·s
viscosity (308.15 K, x2 = 0.4394): 6.808 ± 0.41 mPa·s
viscosity (308.15 K, x2 = 0.5602): 5.251 ± 0.32 mPa·s
viscosity (308.15 K, x2 = 0.658): 4.371 ± 0.26 mPa·s
viscosity (308.15 K, x2 = 0.7408): 3.604 ± 0.22 mPa·s
viscosity (308.15 K, x2 = 0.8511): 2.866 ± 0.17 mPa·s
viscosity (308.15 K, x2 = 0.9396): 2.411 ± 0.15 mPa·s
mass density (308.15 K, x2 = 0): 976.2 ± 1.2 kg/m3
mass density (308.15 K, x2 = 0.081): 959.9 ± 1.2 kg/m3
mass density (308.15 K, x2 = 0.1607): 944.2 ± 1.2 kg/m3
mass density (308.15 K, x2 = 0.2395): 928.7 ± 1.1 kg/m3
mass density (308.15 K, x2 = 0.3499): 907.6 ± 1.1 kg/m3
mass density (308.15 K, x2 = 0.4394): 890.9 ± 1.1 kg/m3
mass density (308.15 K, x2 = 0.5602): 869 ± 1.1 kg/m3
mass density (308.15 K, x2 = 0.658): 851.9 ± 1.1 kg/m3
mass density (308.15 K, x2 = 0.7408): 837.6 ± 1 kg/m3
mass density (308.15 K, x2 = 0.8511): 818.9 ± 1 kg/m3
mass density (308.15 K, x2 = 0.9396): 803.9 ± 1 kg/m3
viscosity (313.15 K, x2 = 0): 14.21 ± 0.86 mPa·s
viscosity (313.15 K, x2 = 0.081): 11.85 ± 0.72 mPa·s
viscosity (313.15 K, x2 = 0.1607): 10.16 ± 0.62 mPa·s
viscosity (313.15 K, x2 = 0.2395): 8.658 ± 0.53 mPa·s
viscosity (313.15 K, x2 = 0.3499): 6.856 ± 0.42 mPa·s
viscosity (313.15 K, x2 = 0.4394): 5.676 ± 0.34 mPa·s
viscosity (313.15 K, x2 = 0.5602): 4.422 ± 0.27 mPa·s
viscosity (313.15 K, x2 = 0.658): 3.715 ± 0.23 mPa·s
viscosity (313.15 K, x2 = 0.7408): 3.07 ± 0.19 mPa·s
viscosity (313.15 K, x2 = 0.8511): 2.446 ± 0.15 mPa·s
viscosity (313.15 K, x2 = 0.9396): 2.053 ± 0.12 mPa·s
mass density (313.15 K, x2 = 0): 972.3 ± 1.2 kg/m3
mass density (313.15 K, x2 = 0.081): 956.1 ± 1.2 kg/m3
mass density (313.15 K, x2 = 0.1607): 940.2 ± 1.2 kg/m3
mass density (313.15 K, x2 = 0.2395): 924.9 ± 1.1 kg/m3
mass density (313.15 K, x2 = 0.3499): 903.7 ± 1.1 kg/m3
mass density (313.15 K, x2 = 0.4394): 886.9 ± 1.1 kg/m3
mass density (313.15 K, x2 = 0.5602): 865 ± 1.1 kg/m3
mass density (313.15 K, x2 = 0.658): 847.8 ± 1.1 kg/m3
mass density (313.15 K, x2 = 0.7408): 833.5 ± 1 kg/m3
mass density (313.15 K, x2 = 0.8511): 814.7 ± 1 kg/m3
mass density (313.15 K, x2 = 0.9396): 799.6 ± 1 kg/m3
viscosity (318.15 K, x2 = 0): 11.58 ± 0.7 mPa·s
viscosity (318.15 K, x2 = 0.081): 9.715 ± 0.59 mPa·s
viscosity (318.15 K, x2 = 0.1607): 8.364 ± 0.51 mPa·s
viscosity (318.15 K, x2 = 0.2395): 7.173 ± 0.44 mPa·s
viscosity (318.15 K, x2 = 0.3499): 5.733 ± 0.35 mPa·s
viscosity (318.15 K, x2 = 0.4394): 4.781 ± 0.29 mPa·s
viscosity (318.15 K, x2 = 0.5602): 3.758 ± 0.23 mPa·s
viscosity (318.15 K, x2 = 0.658): 3.174 ± 0.19 mPa·s
viscosity (318.15 K, x2 = 0.7408): 2.634 ± 0.16 mPa·s
viscosity (318.15 K, x2 = 0.8511): 2.103 ± 0.13 mPa·s
viscosity (318.15 K, x2 = 0.9396): 1.76 ± 0.11 mPa·s
mass density (318.15 K, x2 = 0): 968.5 ± 1.2 kg/m3
mass density (318.15 K, x2 = 0.081): 952.4 ± 1.2 kg/m3
mass density (318.15 K, x2 = 0.1607): 936.6 ± 1.2 kg/m3
mass density (318.15 K, x2 = 0.2395): 921.1 ± 1.1 kg/m3
mass density (318.15 K, x2 = 0.3499): 899.8 ± 1.1 kg/m3
mass density (318.15 K, x2 = 0.4394): 882.9 ± 1.1 kg/m3
mass density (318.15 K, x2 = 0.5602): 860.9 ± 1.1 kg/m3
mass density (318.15 K, x2 = 0.658): 843.6 ± 1.1 kg/m3
mass density (318.15 K, x2 = 0.7408): 829.3 ± 1 kg/m3
mass density (318.15 K, x2 = 0.8511): 810.4 ± 1 kg/m3
mass density (318.15 K, x2 = 0.9396): 795.2 ± 1 kg/m3
viscosity (323.15 K, x2 = 0): 9.546 ± 0.58 mPa·s
viscosity (323.15 K, x2 = 0.081): 8.057 ± 0.49 mPa·s
viscosity (323.15 K, x2 = 0.1607): 6.971 ± 0.42 mPa·s
viscosity (323.15 K, x2 = 0.2395): 6.012 ± 0.36 mPa·s
viscosity (323.15 K, x2 = 0.3499): 4.85 ± 0.29 mPa·s
viscosity (323.15 K, x2 = 0.4394): 4.064 ± 0.25 mPa·s
viscosity (323.15 K, x2 = 0.5602): 3.228 ± 0.2 mPa·s
viscosity (323.15 K, x2 = 0.658): 2.731 ± 0.17 mPa·s
viscosity (323.15 K, x2 = 0.7408): 2.275 ± 0.14 mPa·s
viscosity (323.15 K, x2 = 0.8511): 1.82 ± 0.11 mPa·s
viscosity (323.15 K, x2 = 0.9396): 1.519 ± 0.092 mPa·s
mass density (323.15 K, x2 = 0): 964.9 ± 1.2 kg/m3
mass density (323.15 K, x2 = 0.081): 948.9 ± 1.2 kg/m3
mass density (323.15 K, x2 = 0.1607): 933 ± 1.2 kg/m3
mass density (323.15 K, x2 = 0.2395): 917.5 ± 1.1 kg/m3
mass density (323.15 K, x2 = 0.3499): 896.1 ± 1.1 kg/m3
mass density (323.15 K, x2 = 0.4394): 879.2 ± 1.1 kg/m3
mass density (323.15 K, x2 = 0.5602): 857 ± 1.1 kg/m3
mass density (323.15 K, x2 = 0.658): 839.7 ± 1.1 kg/m3
mass density (323.15 K, x2 = 0.7408): 825.2 ± 1 kg/m3
mass density (323.15 K, x2 = 0.8511): 806.1 ± 1 kg/m3
mass density (323.15 K, x2 = 0.9396): 790.8 ± 1 kg/m3

From the NIST ThermoML archive (doi:10.1021/acs.jced.8b01097)
